This note sets out measurements from patent publication US20240027479A1, “A Comprehensive Breath Test that Confirms Recent Use of Inhaled Cannabis within the Impairment Window” (RCU Labs, Inc., priority 2018, published 2024).

Where “and” joins values, the source holds several entries; their conditions need not be identical. Equal entries are not always repeated. Where two headings read alike, the source gives them in different places.

Series [1] is described as follows: Cannabinoids and Δ^9-THC metabolites in capillary blood (LC-HRMS). Conditions: pre-smoking. An excerpt: The complex nature of cannabinoid pharmacokinetics and pharmacodynamics calls for a new approach for effectively determining recent use of cannabis within the impairment window. We sought to develop a multiple-parameter test based on pharmacological changes in Δ^9-THC and its metabolites in blood over time. This approach requires the collection of two samples separated by a known time interval, which is a critical difference compared to current blood testing methods that rely on the collection of a single sample. The two-sample strategy makes possible the detection of Δ^9-THC in its distribution phase where the half-life is very short [Moeller M R. et al., J Forensic Sci 37:969-83 (1992); Wall M E. et al., Clin Pharmacol Ther 34:352-63 (1983)], which occurs only within the first few hours after smoking, and for the evaluation of how Δ^9-THC metabolite levels in blood are changing with time relative to Δ^9-THC. A liquid chromatography high-resolution mass spectrometry (LC-HRMS) bioanalytical method for the quantification of cannabinoids in microsamples (50 μL) of whole blood was developed and validated for this purpose [DeGregorio M W. et al., J AOAC Int 103:725-35 (2020)].
A total of 92 subjects were included in clinical trials designed to evaluate the feasibility of the described method for determining recent cannabis use (blood-based study in 48 subjects) and recent cannabis use and impairment (breath- and blood-based study in 44 subjects). Each subject was given a single cannabis cigarette and instructed to smoke as much of it as possible within a 10-minute period. Cigarettes containing 500 mg of dried cannabis flower were prepared immediately before each smoking session. During the studies, subjects were given a variety of cannabis chemovars to smoke, with Δ^9-THC content ranging from a low of 8.5% to a high of 28.4%. A wide variety of chemovars was included to account for the variability in Δ^9-THC potencies available in numerous cannabis retail establishments in the various U.S. states where recreational and/or medicinal cannabis has been legalized. Capillary blood samples ([…] collected at various time points prior to smoking and up to 200 minutes after smoking, were obtained from a total of 92 subjects using a variety of methods including lancets and two types of automated blood collection devices. Exhaled breath samples were collected from a total of 44 subjects at various time points prior to smoking and up to 240 minutes post-smoking. Breath samples were collected using devices equipped with electrostatic polymer filters and that are designed to collect approximately 20 L of exhaled breath through normal breathing. The time required for breath sample collection was approximately 2-3 minutes. A total of 74 subjects were asked to self-assess their level of impairment before smoking and at each designated sampling time point after smoking based on a scale ranging from 0 (not impaired) to 10 (very impaired) as shown in FIG. 2. As a physical indicator of impairment, 44 subjects were evaluated for horizontal gaze nystagmus.
One of the first endpoints investigated during clinical development of the recent use test method was whether there is any relationship between blood Δ^9-THC levels and impairment. Prior to smoking, Δ^9-THC blood concentrations were evaluated in a group of 30 subjects before and up to 200 minutes after smoking a 500-mg cannabis cigarette and compared to a common legal limit (5 ng/mL) for establishing driver impairment due to cannabis.

A short description of series [2]: Presence of cannabinoids in exhaled breath before and after smoking (LC-HRMS). It is filed as in vivo, human. How it is done:
(§1) The positive recent use test results outside of the three-hour impairment window based on blood sampling alone led to the incorporation of a second testing matrix, exhaled breath, to strengthen the results of the test method so that cannabis users who are within the impairment window after smoking can be more accurately identified. For this purpose, a total of 44 additional subjects were evaluated in a smoking study in which both exhaled breath and blood samples were collected and then analyzed by LC-HRMS for cannabinoids and Δ^9-THC metabolites. As with the 48-subject blood-based study, subjects were given a 500-mg cannabis cigarette to smoke, and breath and blood samples were collected at various time points before and after smoking.

Series [3] can be described thus: Stability of target analytes in the breath collection device. It is filed as physicochemical. The text has this: In particular, CBN, CBG, and Δ^9-THCV all have a much greater incidence in breath during peak impairment (the first hour after smoking) compared to pre-smoking. […] Stability of the analytes within the breath collection devices was previously established (see Table 4 below).

Series [4] in a line: Cannabinoid half-lives in exhaled breath, multi-point breath sampling. It is filed as in vivo, human. Conditions: for Cannabinoid Half-Lives (min) in breath, back-to-back sampling: individual subject; for half-life: human, exhaled breath, inhaled, 500 mg. The protocol:
as §1
These included the presence of CBN, CBC, CBG, Δ^9-THCV, and CBGA, and short half-lives (<60 minutes) for Δ^9-THC, CBN, CBC, CBG, and Δ^9-THCV (see Table 5 below). […] Pre-smoking, half-lives were calculable for Δ^9-THC in only three subjects.
Evidence of recent cannabis use by inhalation through smoking or vaping dissipates rapidly in exhaled breath, and thus allowing 20 minutes between breath samplings, which was employed in the blood-based study and for most of the subjects in the blood and breath-based study, may result in the loss of valuable data. In the last nine subjects involved in the exhaled breath study, a back-to-back sample collection strategy was employed whereby two exhaled breath samples were collected in quick succession at 20 and 40 minutes post-smoking. Approximately two minutes elapsed between the collection of each sample. The very short half-lives observed for Δ^9-THC, CBN, and other cannabinoids (approximately five minutes or less) in exhaled breath would allow for rapid sampling (see Table 6 below).

[5] abbreviates: Day 3, breath collection device.
Setting [6] is: Day 7, breath collection device.
Setting [7] is: Day 10, breath collection device.
Where [8] appears, read: Day 30, breath collection device.
[9] abbreviates: Day 14, breath collection device.
The mark [10] stands for this setting: 20 Minutes Post-Smoking, read-out: Cannabinoid Half-Lives (min) in breath, back-to-back sampling, Average.

On to `CCCCCc1cc(O)c2c(c1)OC(C)(C)[C@@H]1CCC(C(=O)O)=C[C@@H]21` [11-nor-9-carboxy-Δ^9-THC, 11-nor-9-carboxy-Δ^9-tetrahydrocannabinol], for which the “detection in subjects' blood samples at baseline prior to smoking” value (“detection in subjects' blood samples” below) in series [1] is “detected”.

Regarding `CCCCCc1cc(O)c(C/C=C(\C)CCC=C(C)C)c(O)c1C(=O)O` [CBGA, cannabigerolic acid], the entries for the “Presence in exhaled breath, Percent (%) Positivity” value (from here on “Presence … Percent (%) Positivity”) in series [2] (>60 minutes after smoking), in series [2] (Baseline (Pre-smoking)) and in series [2] (≤60 minutes after smoking) were “(10.0%)”, “(11.8%)” and “(45.0%)”, respectively. Also, the “Presence in exhaled breath, positive/evaluable subjects” value (from here on “Presence … positive/evaluable subjects”) in series [2] (>60 minutes after smoking) is reported as 4/40; in series [2] (Baseline (Pre-smoking)), 4/34; in series [2] (≤60 minutes after smoking) it was 18/40. Also, the “Analyte Stability (%) at Room Temperature (20-25° C.)” value (shortened to “Analyte Stability (%)”) in series [3] (setting [5]) worked out at 99.4%; in series [3] (setting [6]), 110.9%; in series [3] (setting [7]), 110.4%; in series [3] (setting [8]), 114.3%. In addition, in series [1], the “detection in subjects' blood samples” value is listed as “detected”.

As for `CCCc1cc(O)c2c(c1)OC(C)(C)[C@@H]1CCC(C)=C[C@@H]21` [Δ^9-THCV, Δ^9-tetrahydrocannabivarin], the “Presence … Percent (%) Positivity” value is recorded as “(0%)” in series [2] (>60 minutes after smoking), “(0%)” in series [2] (Baseline (Pre-smoking)) and “(90.0%)” in series [2] (≤60 minutes after smoking). Moreover, the “Presence … positive/evaluable subjects” value in series [2] (>60 minutes after smoking) is on record as 0/40; in series [2] (Baseline (Pre-smoking)), 0/34; in series [2] (≤60 minutes after smoking), 36/40. In addition, the “Average Half-Life (minutes ± SD) in breath” value in series [4] (0-10 Minutes Post-Smoking) turned out to be 4.2 ± 3.9 min; in series [4] (0-20 Minutes Post-Smoking), 2.9 ± 0.7 min. The “Analyte Stability (%)” value in series [3] (setting [5]) came to 79.7%; in series [3] (setting [6]) it was 68.1%; in series [3] (setting [7]), 69.8%; in series [3] (setting [9]), 56.5%; in series [3] (setting [8]) it was 47.1%. Further, the “detection in subjects' blood samples” value in series [1] is listed as “detected”.

Turning to `CCCCCc1cc(O)c2c(c1)OC(C)(C)C1CCC(CO)=CC21` (stereo not shown) [11-OH-Δ^9-THC, 11-hydroxy-Δ^9-tetrahydrocannabinol], the “detection in subjects' blood samples” value in series [1] is given as “detected”.

With `CCCCCc1cc2c(c(O)c1C(=O)O)[C@@H]1C=C(C)CC[C@H]1C(C)(C)O2` [Δ^9-THCA, Δ^9-tetrahydrocannabinolic acid A], the “detection in subjects' blood samples” value in series [1] is given as “detected”.

For the compound `CCCCCc1cc(O)c2c(c1)OC(C)(C)c1ccc(C)cc1-2` [CBN, cannabinol], the “Presence … Percent (%) Positivity” value is on record as “(10.0%)” in series [2] (>60 minutes after smoking), “(2.9%)” in series [2] (Baseline (Pre-smoking)) and “(92.5%)” in series [2] (≤60 minutes after smoking). Besides, the figures for the “Presence … positive/evaluable subjects” value in series [2] (>60 minutes after smoking), in series [2] (Baseline (Pre-smoking)) and in series [2] (≤60 minutes after smoking) were 4/40, 1/34 and 37/40, respectively. The “Cannabinoid Half-Lives (min) in breath, back-to-back sampling” value was 2.0 min and 2.3 min and 1.8 min and 6.4 min and 1.1 min in series [4] (20 Minutes Post-Smoking); 2.9 min and 4.8 min and 10.7 min in series [4] (40 Minutes Post-Smoking). The “half-lives observed in exhaled breath” value in series [4] (approximate, summary statement) was “five”. Further, the half-life in series [4] (20-60 Minutes Post-Smoking, read-out: Average Half-Life (minutes ± SD) in breath) turned out to be 35.2 min; in series [4] (setting [10]) it was 2.7 min; in series [4] (40-60 Minutes Post-Smoking, read-out: Average Half-Life (minutes ± SD) in breath), 12.8 min; in series [4] (40 Minutes Post-Smoking, read-out: Cannabinoid Half-Lives (min) in breath, back-to-back sampling, Average) it was 6.1 min. Further, the “Analyte Stability (%)” value is 104.5% in series [3] (setting [5]); 100.0% in series [3] (setting [6]); 107.3% in series [3] (setting [7]); 87.9% in series [3] (setting [9]); 74.4% in series [3] (setting [8]). The “detection in subjects' blood samples” value in series [1] was “detected”.

As for `CCCCCc1cc(O)c(C/C=C(\C)CCC=C(C)C)c(O)c1` [CBG, cannabigerol], the “Presence … Percent (%) Positivity” value was “(2.5%)” in series [2] (>60 minutes after smoking), “(5.9%)” in series [2] (Baseline (Pre-smoking)) and “(92.5%)” in series [2] (≤60 minutes after smoking). The “Presence … positive/evaluable subjects” value is 1/40 in series [2] (>60 minutes after smoking), 2/34 in series [2] (Baseline (Pre-smoking)) and 37/40 in series [2] (≤60 minutes after smoking). Also, the “Cannabinoid Half-Lives (min) in breath, back-to-back sampling” value in series [4] (20 Minutes Post-Smoking) is 1.6 min and 1.3 min and 2.6 min and 2.1 min and 0.7 min. For the same compound, the half-life turned out to be 3.6 ± 2.1 min in series [4] (0-10 Minutes Post-Smoking, read-out: Average Half-Life (minutes ± SD) in breath); 3.7 ± 3.1 min in series [4] (0-20 Minutes Post-Smoking, read-out: Average Half-Life (minutes ± SD) in breath); 1.7 min in series [4] (setting [10]). Besides, the “Analyte Stability (%)” value in series [3] (setting [5]) came to 97.5%; in series [3] (setting [6]), 87.6%; in series [3] (setting [7]), 97.8%; in series [3] (setting [9]) it was 75.0%; in series [3] (setting [8]) it was 56.5%. Also, in series [1], the “detection in subjects' blood samples” value is on record as “detected”.

With `C=C(C)[C@@H]1CCC(C)=C[C@H]1c1c(O)cc(CCCCC)cc1O` [CBD, cannabidiol], in series [1], the “detection in subjects' blood samples” value was “detected”.

`CCCCCc1cc(O)c2c(c1)OC(C)(C)[C@@H]1C[C@@H](O)C(C)=C[C@@H]21` [8β-hydroxy-Δ^9-THC]: the “detection in subjects' blood samples” value in series [1] is listed as “detected”.

Take `C=C(C)[C@@H]1CCC(C)=C[C@H]1c1c(O)cc(CCCCC)c(C(=O)O)c1O` [CBDA, cannabidiolic acid]: in series [1], the “detection in subjects' blood samples” value is on record as “detected”.

On to `CCCCCc1cc(O)c2c(c1)OC(C)(C)C1CC(O)C(CO)=CC21` (stereo not drawn) [8β,11-dihydroxy-Δ^9-THC], for which the “detection in subjects' blood samples” value in series [1] is given as “detected”.
